Results published in the supplement of paper PMC4862054.

Tests used:
Details in all cases: incubation time: 72 h
MFM-223 [1] = assay: drug sensitivity score (DSS), CellTox Green (DSS (AUC-based score)); higher = stronger drug effect (viability inhibition or cytotoxicity); extreme values may be limits of the assay
Procedure, shortened: (§1)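 Each compound occupied 5 concentrations in 10-fold steps over its own 10,000-fold range in 384-well plates, into which breast cancer cell lines were seeded as 20 µl suspension. Following 72 h of incubation, CellTox Green fluorescence (485/520 nm) was measured, and CellTiter-Glo luminescence was measured after 10 min at room temperature. Plates were individually normalised to 0.1 % DMSO and a positive kill control. From the area under the fitted dose-response curve, a drug sensitivity score was calculated.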

MCF-10A [2] = assay: as above
Procedure, shortened: as §1

HCC1599 [3] = assay: as above
Procedure, shortened: as §1

BT-474 [4] = assay: as above
Procedure, shortened: as §1

MDA-MB-468 [5] = assay: as above
Procedure, shortened: as §1

HCC1143 [6] = assay: as above
Procedure, shortened: as §1

HDQ-P1 [7] = assay: as above
Procedure, shortened: as §1

CAL-85-1 [8] = assay: as above
Procedure, shortened: as §1

DU-4475 [9] = assay: as above
Procedure, shortened: as §1

HCC1937 [10] = assay: as above
Procedure, shortened: as §1

CAL-51 [11] = assay: as above
Procedure, shortened: as §1

MDA-MB-453 [12] = assay: as above
Procedure, shortened: as §1

MDA-MB-231 [13] = assay: as above
Procedure, shortened: as §1

CAL-148 [14] = assay: as above
Procedure, shortened: as §1

CAL-120 [15] = assay: as above
Procedure, shortened: as §1

BT-549 [16] = assay: as above
Procedure, shortened: as §1

Hs578T = assay: drug sensitivity score (DSS), CellTiter-Glo (DSS (AUC-based score)); higher = stronger drug effect (viability inhibition or cytotoxicity); extreme values may be limits of the assay
Procedure, shortened: as §1

MFM-223 [17] = assay: as above
Procedure, shortened: as §1

MCF-10A [18] = assay: as above
Procedure, shortened: as §1

SK-BR-3 = assay: as above
Procedure, shortened: as §1

HCC1599 [19] = assay: as above
Procedure, shortened: as §1

BT-474 [20] = assay: as above
Procedure, shortened: as §1

MDA-MB-468 [21] = assay: as above
Procedure, shortened: as §1

MDA-MB-436 = assay: as above
Procedure, shortened: as §1

HCC1143 [22] = assay: as above
Procedure, shortened: as §1

HDQ-P1 [23] = assay: as above
Procedure, shortened: as §1

CAL-85-1 [24] = assay: as above
Procedure, shortened: as §1

DU-4475 [25] = assay: as above
Procedure, shortened: as §1

HCC1937 [26] = assay: as above
Procedure, shortened: as §1

CAL-51 [27] = assay: as above
Procedure, shortened: as §1

MDA-MB-453 [28] = assay: as above
Procedure, shortened: as §1

MDA-MB-231 [29] = assay: as above
Procedure, shortened: as §1

CAL-148 [30] = assay: as above
Procedure, shortened: as §1

CAL-120 [31] = assay: as above
Procedure, shortened: as §1

BT-549 [32] = assay: as above
Procedure, shortened: as §1

Work on c1ccc([C@H]2CN3CCSC3=N2)cc1 [Levamisole] yielded a drug sensitivity score (MFM-223 [1]) of 0, a drug sensitivity score (MCF-10A [2]) of 0 and a drug sensitivity score (HCC1599 [3]) of 0. The drug sensitivity score (BT-474 [4]) was 0, the drug sensitivity score (MDA-MB-468 [5]) was 0 and the drug sensitivity score (HCC1143 [6]) was 0. The drug sensitivity score (HDQ-P1 [7]) was 2.62, the drug sensitivity score (CAL-85-1 [8]) was 0 and the drug sensitivity score (DU-4475 [9]) was 0. The drug sensitivity score (HCC1937 [10]) was 0, the drug sensitivity score (CAL-51 [11]) was 0 and the drug sensitivity score (MDA-MB-453 [12]) was 1.72. The drug sensitivity score (MDA-MB-231 [13]) was 1.47, the drug sensitivity score (CAL-148 [14]) was 0 and the drug sensitivity score (CAL-120 [15]) was 0. The drug sensitivity score (BT-549 [16]) was 0, the drug sensitivity score (Hs578T) was 0 and the drug sensitivity score (MFM-223 [17]) was 0. It also gave a drug sensitivity score (MCF-10A [18]) of 0, a drug sensitivity score (SK-BR-3) of 0 and a drug sensitivity score (HCC1599 [19]) of 0. The drug sensitivity score (BT-474 [20]) was 0, the drug sensitivity score (MDA-MB-468 [21]) was 0 and the drug sensitivity score (MDA-MB-436) was 0. It also gave a drug sensitivity score (HCC1143 [22]) of 0, a drug sensitivity score (HDQ-P1 [23]) of 0 and a drug sensitivity score (CAL-85-1 [24]) of 0. The drug sensitivity score (DU-4475 [25]) was 0, the drug sensitivity score (HCC1937 [26]) was 0 and the drug sensitivity score (CAL-51 [27]) was 0. It also gave a drug sensitivity score (MDA-MB-453 [28]) of 0, a drug sensitivity score (MDA-MB-231 [29]) of 0 and a drug sensitivity score (CAL-148 [30]) of 0. The drug sensitivity score (CAL-120 [31]) was 0 and the drug sensitivity score (BT-549 [32]) was 0.
